Experimental findings from patent publication US10294256B2, “Phosphine oxide alkyl amide substituted heteroaryl compounds as modulators of IL-12, IL-23 and/or IFN alpha responses” (BRISTOL-MYERS SQUIBB COMPANY, priority 2016, dated 2019) are described below.

Where two headings read alike, the source gives them in different places.

The target of assay [1] is recombinant human His-tagged Tyk2 pseudokinase domain (His-TVMV-Tyk2, 575-869) (Homo sapiens, UniProt P29597). The experiment in a line: Probe Displacement Assay (HTRF Format). The following applies: 0.5 nM Tyk2 pseudokinase domain, 1 h room temperature, read-out: Binding IC50. How it is done: To 10 μL 26 nM fluorescein labeled probe plus 0.2 nM anti-6×His-terbium labeled antibody (Medarex, labeled by Cisbio) in assay buffer (20 mM Hepes pH 7.5, 150 mM NaCl, 10 mM MgCl2, 2 mM DTT, 50 μg/mL BSA, and 0.015% Brij 35) was added 10 μL recombinant human His-tagged Tyk2 pseudokinase domain (His-TVMV-Tyk2, 575-869) to a final concentration of 0.5 nM. After 1 h at room temperature, the HTRF signal (ratio of fluorescence intensities at emission wavelengths for fluorescein acceptor at 520 nm and terbium donor at 495 nm) was measured on an Envision Plate Reader. Percent inhibition was calculated by comparison to a control without inhibitor and a control without protein.
Protein Sequence of recombinant His-tagged Tyk2 (575-869): […]
(In TR-FRET formats the signal depends on donor and acceptor labels being close together.)

Assay [2] concerns IL-23 stimulated Kit225 T cells with STAT-dependent luciferase reporter. The experiment in a line: Kit225 T Cell Assay, IL-23 stimulated STAT-dependent luciferase reporter. In kind it is cell-based, human. How it is done:
(§1) Kit225 T cells with a stably-integrated STAT-dependent luciferase reporter were plated in RPMI (Gibco) containing 10% heat-inactivated FBS (Gibco) and 100 U/mL PenStrep (Gibco). The cells were then stimulated with either 20 ng/mL human recombinant IL-23 or 200 U/mL human recombinant IFNα (PBL InterferonSource) for 5-6 hours. Luciferase expression was measured using the STEADY-GLO® Luciferase Assay System (Promega) according to the manufacturer's instructions. Inhibition data were calculated by comparison to no inhibitor control wells for 0% inhibition and non-stimulated control wells for 100% inhibition.

For assay [3], the system named is IFNα stimulated Kit225 T cells with STAT-dependent luciferase reporter. Description: Kit225 T Cell Assay, IFNα stimulated STAT-dependent luciferase reporter. Type of assay: cell-based, human. How it is done:
as §1
Background: A reporter such as luciferase makes a cellular process visible.

The mark [4] stands for this setting: KIT225, 20 ng/mL human recombinant IL-23, 5-6 hours, luciferase reporter, read-out: IL23 Kit 225 IC50.
[5] abbreviates: KIT225, 200 U/mL human recombinant IFNα, 5-6 hours, luciferase reporter, read-out: IFN[…] Kit 225 IC50.

The IC50 is the concentration at which inhibition is half-maximal.

Chain of recombinant human His-tagged Tyk2 pseudokinase domain (His-TVMV-Tyk2, 575-869) (P29597 with tags, fused parts or gaps): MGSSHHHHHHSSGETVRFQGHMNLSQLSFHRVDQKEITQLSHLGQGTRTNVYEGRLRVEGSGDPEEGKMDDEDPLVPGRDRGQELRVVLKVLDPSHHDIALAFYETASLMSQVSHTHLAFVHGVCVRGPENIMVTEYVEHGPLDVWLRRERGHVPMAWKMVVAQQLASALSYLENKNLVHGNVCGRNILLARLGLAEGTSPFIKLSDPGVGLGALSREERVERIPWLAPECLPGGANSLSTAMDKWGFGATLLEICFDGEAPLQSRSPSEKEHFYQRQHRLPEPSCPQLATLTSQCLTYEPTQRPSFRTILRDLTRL

For `[2H]C([2H])([2H])NC(=O)c1nnc(Nc2ccn(C)n2)cc1Nc1ncccc1P(C)(C)=O` [Example 23], the IC50 in assay [1] worked out at 2 nM; in assay [2] (setting [4]), 1150 nM; in assay [3] (setting [5]) it was 666 nM.

Consider `[2H]C([2H])([2H])NC(=O)c1nnc(Nc2ccc(C(C)(C)O)cn2)cc1Nc1ncccc1P(C)(C)=O` [Example 16], for which the IC50 in assay [1] was determined as 0.29 nM; in assay [2] (setting [4]), 1210 nM; in assay [3] (setting [5]) it was 673 nM.

Turning to `[2H]C([2H])([2H])NC(=O)c1nnc(NC(=O)OCC)cc1Nc1ncccc1P(C)(C)=O` [Example 19], the IC50 in assay [1] is 9.8 nM; in assay [2] (setting [4]), 817 nM; in assay [3] (setting [5]), 4160 nM.

On to `[2H]C([2H])([2H])NC(=O)c1nnc(Nc2ccc(F)cn2)cc1Nc1ncccc1P(C)(C)=O` [Example 15], for which the values for the IC50 in assay [1], in assay [2] (setting [4]) and in assay [3] (setting [5]) were 0.54 nM, 114 nM and 48 nM, respectively.

Turning to `[2H]C([2H])([2H])NC(=O)c1nnc(Nc2ccc(Cl)cn2)cc1Nc1ncccc1P(C)(C)=O` [Example 37], the IC50 in assay [1] was 0.38 nM; in assay [2] (setting [4]) it was 52.8 nM; in assay [3] (setting [5]), 74 nM.

Regarding `[2H]C([2H])([2H])NC(=O)c1nnc(NC(=O)C2CC2)cc1Nc1ncccc1P(C)(C)=O` [Example 9], the results for the IC50 in assay [1], in assay [2] (setting [4]) and in assay [3] (setting [5]) were 1.4 nM, 282 nM and 514 nM, respectively.

As to `[2H]C([2H])([2H])NC(=O)c1nnc(Nc2cc(C)nc(C)n2)cc1Nc1ccccc1P(C)(C)=O` [Example 3], the IC50 came out at 1.6 nM in assay [1], 3470 nM in assay [2] (setting [4]) and 1560 nM in assay [3] (setting [5]).

As to `[2H]C([2H])([2H])NC(=O)c1nnc(Nc2ccc(C3CC3)cn2)cc1Nc1ncccc1P(C)(C)=O` [Example 17], the values for the IC50 in assay [1], in assay [2] (setting [4]) and in assay [3] (setting [5]) were 0.27 nM, 58 nM and 43 nM, respectively.

Turning to `[2H]C([2H])([2H])NC(=O)c1nnc(Nc2cccc(C)n2)cc1Nc1ncccc1P(C)(C)=O` [Example 18], the IC50 in assay [1] was found to be 0.44 nM; in assay [2] (setting [4]) it was 58 nM; in assay [3] (setting [5]), 33 nM.

For `[2H]C([2H])([2H])NC(=O)c1nnc(Nc2ccn(C)n2)cc1Nc1ccccc1P(C)(C)=O` [Example 8], the IC50 is 12 nM in assay [1], 3700 nM in assay [2] (setting [4]) and 1760 nM in assay [3] (setting [5]).

On to `[2H]C([2H])([2H])NC(=O)c1nnc(Nc2cc(C3CC3)ccn2)cc1Nc1ccccc1P(C)(C)=O` [Example 1], for which the IC50 in assay [1] is 3.4 nM; in assay [2] (setting [4]) it was 383 nM; in assay [3] (setting [5]) it was 242 nM.

On to `[2H]C([2H])([2H])NC(=O)c1nnc(Nc2cc(COC)ccn2)cc1Nc1ncccc1P(C)(C)=O` [Example 20], for which the IC50 in assay [1] turned out to be 0.58 nM; in assay [2] (setting [4]), 67 nM; in assay [3] (setting [5]) it was 50 nM.

`[2H]C([2H])([2H])NC(=O)c1nnc(Nc2ccc(OC)nn2)cc1Nc1ccccc1P(C)(C)=O` [Example 4]: the IC50 came out at 10 nM in assay [1], 2570 nM in assay [2] (setting [4]) and 9160 nM in assay [3] (setting [5]).

With `[2H]C([2H])([2H])NC(=O)c1nnc(Nc2ccc(C(C)(C)N)cn2)cc1Nc1ncccc1P(C)(C)=O` [Example 35], the IC50 in assay [1] amounted to 1.2 nM; in assay [2] (setting [4]), 1770 nM; in assay [3] (setting [5]) it was 2290 nM.

Turning to `[2H]C([2H])([2H])NC(=O)c1nnc(Nc2ccc(C(C)(C)O)cn2)cc1Nc1ccccc1P(C)(C)=O` [Example 6], the IC50 came out at 2.2 nM in assay [1], 3110 nM in assay [2] (setting [4]) and 423 nM in assay [3] (setting [5]).

`[2H]C([2H])([2H])NC(=O)c1nnc(Nc2cccc(C(F)(F)F)n2)cc1Nc1ncccc1P(C)(C)=O` [Example 40]: the IC50 was found to be 0.46 nM in assay [1], 256 nM in assay [2] (setting [4]) and 137 nM in assay [3] (setting [5]).

Turning to `[2H]C([2H])([2H])NC(=O)c1nnc(Nc2ccccn2)cc1Nc1ncccc1P(C)(C)=O` [Example 14], the IC50 was 0.79 nM in assay [1], 212 nM in assay [2] (setting [4]) and 125 nM in assay [3] (setting [5]).

Turning to `[2H]C([2H])([2H])NC(=O)c1nnc(Nc2cccc(OC)n2)cc1Nc1ncccc1P(C)(C)=O` [Example 24], the IC50 in assay [1] was found to be 0.97 nM; in assay [2] (setting [4]), 84 nM; in assay [3] (setting [5]), 33 nM.

`[2H]C([2H])([2H])NC(=O)c1nnc(Nc2ccc(C(C)(C)O)c(F)n2)cc1Nc1ncccc1P(C)(C)=O` [Example 34]: the results for the IC50 in assay [1], in assay [2] (setting [4]) and in assay [3] (setting [5]) were 0.86 nM, 1350 nM and 350 nM, respectively.

With `[2H]C([2H])([2H])NC(=O)c1nnc(Nc2ccc(N3CCOCC3)cn2)cc1Nc1ccccc1P(C)(C)=O` [Example 7], the IC50 in assay [1] turned out to be 13 nM; in assay [2] (setting [4]), 1440 nM; in assay [3] (setting [5]) it was 799 nM.

In the case of `[2H]C([2H])([2H])NC(=O)c1nnc(NC(=O)C2CC23CC3)cc1Nc1ncccc1P(C)(C)=O` (stereo not drawn) [Example 33], the results for the IC50 in assay [1], in assay [2] (setting [4]) and in assay [3] (setting [5]) were 2.9 nM, 3720 nM and 1480 nM, respectively.

On to `[2H]C([2H])([2H])NC(=O)c1nnc(Nc2cccc(F)n2)cc1Nc1ncccc1P(C)(C)=O` [Example 22], for which the IC50 in assay [1] was 0.037 nM; in assay [2] (Homo sapiens, KIT225, read-out: IL23 Kit 225 IC50), 40 nM; in assay [3] (Homo sapiens, KIT225, read-out: IFN[…] Kit 225 IC50), 15 nM.

`[2H]C([2H])([2H])NC(=O)c1nnc(NC(=O)[C@H]2CC2(C)C)cc1Nc1ncccc1P(C)(C)=O` [Example 27]: the IC50 stood at 13 nM in assay [1], 12500 nM in assay [2] (setting [4]) and 4610 nM in assay [3] (setting [5]).

Consider `[2H]C([2H])([2H])NC(=O)c1nnc(Nc2ccc(N3CCOCC3)cn2)cc1Nc1ncccc1P(C)(C)=O` [Example 42], for which the IC50 is 0.62 nM in assay [1], 298 nM in assay [2] (setting [4]) and 266 nM in assay [3] (setting [5]).

On to `[2H]C([2H])([2H])NC(=O)c1nnc(Nc2ccc(F)c(C)n2)cc1Nc1ncccc1P(C)(C)=O` [Example 31], for which the IC50 in assay [1] is 0.54 nM; in assay [2] (setting [4]) it was 45.3 nM; in assay [3] (setting [5]), 53.9 nM.

Consider `[2H]C([2H])([2H])NC(=O)c1nnc(NC(=O)C2CC2(C)C)cc1Nc1ncccc1P(C)(C)=O` (stereo not drawn) [Example 28], for which the IC50 in assay [1] amounted to 17 nM; in assay [2] (setting [4]) it was 6320 nM; in assay [3] (setting [5]), 6340 nM.

Regarding `[2H]C([2H])([2H])NC(=O)c1nnc(Nc2ccc(OC(F)(F)F)cn2)cc1Nc1ncccc1P(C)(C)=O` [Example 13], the IC50 in assay [1] was found to be 0.43 nM; in assay [2] (setting [4]), 44 nM; in assay [3] (setting [5]), 22 nM.

In the case of `[2H]C([2H])([2H])NC(=O)c1nnc(Nc2cc(F)ccn2)cc1Nc1ncccc1P(C)(C)=O` [Example 25], the values for the IC50 in assay [1], in assay [2] (setting [4]) and in assay [3] (setting [5]) were 0.58 nM, 132 nM and 90 nM, respectively.

Consider `[2H]C([2H])([2H])NC(=O)c1nnc(Nc2cc(Cl)c(C(C)(C)O)cn2)cc1Nc1ncccc1P(C)(C)=O` [Example 36], for which the values for the IC50 in assay [1], in assay [2] (setting [4]) and in assay [3] (setting [5]) were 0.53 nM, 927 nM and 905 nM, respectively.

As for `[2H]C([2H])([2H])NC(=O)c1nnc(Nc2cc(C3CC3)ccn2)cc1Nc1ncccc1P(C)(C)=O` [Example 12], the IC50 in assay [1] was 0.74 nM; in assay [2] (setting [4]), 92 nM; in assay [3] (setting [5]), 144 nM.

For the molecule `[2H]C([2H])([2H])NC(=O)c1nnc(Nc2ccc(C)cn2)cc1Nc1ncccc1P(C)(C)=O` [Example 30], the IC50 in assay [1] stood at 0.56 nM; in assay [2] (setting [4]), 121 nM; in assay [3] (setting [5]) it was 32.3 nM.

Regarding `[2H]C([2H])([2H])NC(=O)c1nnc(Nc2ccc(C)c(C)n2)cc1Nc1ncccc1P(C)(C)=O` [Example 29], the IC50 in assay [1] was 0.54 nM; in assay [2] (setting [4]) it was 62 nM; in assay [3] (setting [5]) it was 22.8 nM.

For `[2H]C([2H])([2H])NC(=O)c1nnc(Nc2cc(C)ccn2)cc1Nc1ncccc1P(C)(C)=O` [Example 21], the IC50 in assay [1] was 0.62 nM; in assay [2] (setting [4]) it was 19 nM; in assay [3] (setting [5]), 50 nM.

Consider `[2H]C([2H])([2H])NC(=O)c1nnc(Nc2ccc(C(F)(F)F)cn2)cc1Nc1ncccc1P(C)(C)=O` [Example 39], for which the IC50 in assay [1] was 0.34 nM; in assay [2] (setting [4]), 59.4 nM; in assay [3] (setting [5]), 217 nM.

With `[2H]C([2H])([2H])NC(=O)c1nnc(Nc2ccc(C(O)(C(F)(F)F)C(F)(F)F)cn2)cc1Nc1ncccc1P(C)(C)=O` [Example 41], the IC50 in assay [1] was determined as 0.92 nM; in assay [2] (setting [4]) it was 322 nM; in assay [3] (setting [5]), 206 nM.

For the molecule `[2H]C([2H])([2H])NC(=O)c1nnc(NC(=O)C2CC2)cc1Nc1ccccc1P(C)(C)=O` [Example 2], the IC50 in assay [1] came to 7.4 nM; in assay [2] (setting [4]) it was 1800 nM; in assay [3] (setting [5]), 3170 nM.

As to `[2H]C([2H])([2H])NC(=O)c1nnc(Nc2ccc(C3CC3)cn2)cc1Nc1ccccc1P(C)(C)=O` [Example 5], the IC50 was found to be 5.2 nM in assay [1], 390 nM in assay [2] (setting [4]) and 337 nM in assay [3] (setting [5]).
